Reference: ChEMBL document CHEMBL3580594, “Synthesis and biological evaluation of 4-substituted fluoronucleoside analogs for the treatment of hepatitis B virus infection” (J Med Chem, 2015)

Experiments:
Rattus norvegicus [1] = experiment: In vivo drug formation in rat urine sample treated with 1-((2R,3S,4R,5R)-5-Azido-3-fluoro-4-hydroxy-5-(hydroxymethyl)tetrahydrofuran-2-yl)-4-(cyclopropylamino)-pyrimidin-2(1H)-one by LC-MS/MS analysis; type: ADME, organism-based
[2] = Cytotoxicity against human HepG2.2.15 cells by MTT assay; type: cell-based, HepG2 2.2.15
Hepatitis B virus [3] = experiment: Antiviral activity against Hepatitis B virus in HepG2.CW cells assessed as inhibition of viral DNA replication at 1 uM after 9 days by real-time FQ-PCR analysis; type: functional; conditions: 216 h
Hepatitis B virus [4] = experiment: Antiviral activity against Hepatitis B virus in HepG2.2.15 cells assessed as inhibition of intracellular viral DNA replication at 0.1 uM after 9 days by real-time FQ-PCR analysis; type: functional; conditions: HepG2 2.2.15, 216 h
Hepatitis B virus [5] = experiment: Antiviral activity against Hepatitis B virus in HepG2.2.15 cells assessed as inhibition of intracellular viral DNA replication at 0.1 uM after 6 days by real-time FQ-PCR analysis; type: functional; conditions: HepG2 2.2.15, 144 h
Hepatitis B virus [6] = experiment: Antiviral activity against Hepatitis B virus in HepG2.2.15 cells assessed as inhibition of extracellular viral DNA replication at 0.1 uM after 6 days by real-time FQ-PCR analysis; type: functional; conditions: HepG2 2.2.15, 144 h
Hepatitis B virus [7] = experiment: Antiviral activity against Hepatitis B virus in HepG2.2.15 cells assessed as inhibition of extracellular viral DNA replication at 0.1 uM after 9 days by real-time FQ-PCR analysis; type: functional; conditions: HepG2 2.2.15, 216 h
Hepatitis B virus [8] = experiment: Antiviral activity against Hepatitis B virus in HepG2.2.15 cells assessed as inhibition of extracellular viral DNA replication at 0.1 uM after 3 days by real-time FQ-PCR analysis; type: functional; conditions: HepG2 2.2.15, 72 h
Hepatitis B virus [9] = experiment: Antiviral activity against Hepatitis B virus in HepG2.2.15 cells assessed as inhibition of intracellular viral DNA replication at 0.1 uM after 3 days by real-time FQ-PCR analysis; type: functional; conditions: HepG2 2.2.15, 72 h
Duck hepatitis B virus [10] = experiment: Antiviral activity against duck Hepatitis B virus infected in duck assessed as inhibition of viral DNA replication in liver at 20 mg/kg/day, po measured after 3 days of treatment withdrawal; type: functional; conditions: 72 h
Duck hepatitis B virus [11] = experiment: Antiviral activity against duck Hepatitis B virus infected in duck assessed as inhibition of viral DNA replication in serum at 20 mg/kg/day, po measured after 3 days of treatment withdrawal; type: functional; conditions: 72 h
Duck hepatitis B virus [12] = experiment: Antiviral activity against duck Hepatitis B virus infected in duck assessed as inhibition of viral DNA replication in serum at 20 mg/kg/day, po treatment initiated at day 5 after infection relative to control; type: functional; conditions: 120 h
[13] = Cmax in Sprague-Dawley rat at 32 mg/kg, po; type: ADME, organism-based; set-up: dose 32 mg/kg, route oral; conditions: in vivo
[14] = Tmax in Sprague-Dawley rat at 32 mg/kg, po; type: ADME, organism-based; conditions: in vivo
Duck hepatitis B virus [15] = experiment: Antiviral activity against duck Hepatitis B virus infected in duck assessed as inhibition of viral DNA replication in serum at 20 mg/kg/day, po treatment initiated at day 10 after infection relative to control; type: functional; conditions: 240 h
Duck hepatitis B virus [16] = experiment: Antiviral activity against duck Hepatitis B virus infected in duck assessed as inhibition of viral DNA replication in liver at 20 mg/kg/day, po treatment initiated at day 10 after infection relative to control; type: functional; conditions: 240 h
Duck hepatitis B virus [17] = experiment: Antiviral activity against duck Hepatitis B virus infected in duck assessed as inhibition of viral DNA replication in liver at 20 mg/kg/day, po treatment initiated at day 5 after infection relative to control; type: functional; conditions: 120 h
[18] = Oral bioavailability in Sprague-Dawley rat at 32 mg/kg; type: ADME, organism-based; conditions: in vivo
Rattus norvegicus [19] = experiment: In vivo drug formation in rat urine sample treated with 1-((2R,3S,4R,5R)-5-Azido-3-fluoro-4-hydroxy-5-(hydroxymethyl)tetrahydrofuran-2-yl)-4-(cyclopropylamino)-pyrimidin-2(1H)-one by NMR spectrum; type: ADME, organism-based
Hepatitis B virus [20] = experiment: Antiviral activity against lamivudine-resistant Hepatitis B virus; type: functional, organism-based
Hepatitis B virus [21] = experiment: Antiviral activity against wild type Hepatitis B virus; type: functional, organism-based
Rattus norvegicus [22] = experiment: In vivo drug formation in rat plasma sample treated with 1-((2R,3S,4R,5R)-5-Azido-3-fluoro-4-hydroxy-5-(hydroxymethyl)tetrahydrofuran-2-yl)-4-(cyclopropylamino)-pyrimidin-2(1H)-one by LC-MS/MS analysis; type: ADME, organism-based
Rattus norvegicus [23] = experiment: In vivo drug formation in rat bile sample treated with 1-((2R,3S,4R,5R)-5-Azido-3-fluoro-4-hydroxy-5-(hydroxymethyl)tetrahydrofuran-2-yl)-4-(cyclopropylamino)-pyrimidin-2(1H)-one by LC-MS/MS analysis; type: ADME, organism-based

## [N-]=[N+]=N[C@]1(CO)O[C@@H](n2ccc(NC3C(O)C3O)nc2=O)[C@@H](F)[C@@H]1O (stereo not given in full)
Rattus norvegicus [1]
  Drug metabolism: metabolite_detected

## [N-]=[N+]=N[C@]1(CO)O[C@@H](n2ccc(=O)[nH]c2=O)[C@@H](F)[C@@H]1O
[2]
  CC50: > 125 µM
Hepatitis B virus [3]
  inhibition at 1 µM: 75.5%

## [N-]=[N+]=N[C@]1(CO)O[C@@H](n2ccc(N3CCCC3)nc2=O)[C@@H](F)[C@@H]1O
[2]
  CC50: > 125 µM
Hepatitis B virus [3]
  inhibition at 1 µM: 33.1%

## C=C1[C@H](CO)[C@@H](O)C[C@@H]1n1cnc2c(=O)[nH]c(N)nc21
[2]
  CC50: 30 µM
Hepatitis B virus [4]
  inhibition at 0.1 µM: 57.6%
Hepatitis B virus [5]
  inhibition at 0.1 µM: 40.6%
Hepatitis B virus [3]
  inhibition at 1 µM: 95.7%
Hepatitis B virus [6]
  inhibition at 0.1 µM: 47.8%
Hepatitis B virus [7]
  inhibition at 0.1 µM: 78.6%
Hepatitis B virus [8]
  inhibition at 0.1 µM: 38.2%
Hepatitis B virus [9]
  inhibition at 0.1 µM: 37.8%

## [N-]=[N+]=N[C@]1(CO)O[C@@H](n2ccc(NC3CCCC3)nc2=O)[C@@H](F)[C@@H]1O
[2]
  CC50: > 125 µM
Hepatitis B virus [3]
  inhibition at 1 µM: 37.3%

## CCNc1ccn([C@@H]2O[C@@](CO)(N=[N+]=[N-])[C@@H](O)[C@@H]2F)c(=O)n1
[2]
  CC50: > 125 µM
Hepatitis B virus [3]
  inhibition at 1 µM: 78%

## CCC(C)Nc1ccn([C@@H]2O[C@@](CO)(N=[N+]=[N-])[C@@H](O)[C@@H]2F)c(=O)n1 (stereo not given in full)
[2]
  CC50: > 125 µM
Hepatitis B virus [3]
  inhibition at 1 µM: 61.7%

## Nc1ccn([C@@H]2CS[C@H](CO)O2)c(=O)n1 [LAMIVUDINE]
Duck hepatitis B virus [10]
  inhibition in vivo at 20 mg/kg/day: 76.2%
Duck hepatitis B virus [11]
  inhibition in vivo at 20 mg/kg/day: 79.3%
Duck hepatitis B virus [12]
  inhibition in vivo at 20 mg/kg/day: 88.6%
[13]
  Cmax: 274 ng/mL
[14]
  Tmax: 5 h
Duck hepatitis B virus [15]
  inhibition in vivo at 20 mg/kg/day: 82.2%
Duck hepatitis B virus [16]
  inhibition in vivo at 20 mg/kg/day: 84%
Duck hepatitis B virus [17]
  inhibition in vivo at 20 mg/kg/day: 52.7%
[18]
  bioavailability: 18.7%

## [N-]=[N+]=N[C@]1(CO)O[C@@H](n2ccc(NC3CCCCC3)nc2=O)[C@@H](F)[C@@H]1O
[2]
  CC50: > 125 µM
Hepatitis B virus [3]
  inhibition at 1 µM: 23.6%

## [N-]=[N+]=N[C@]1(CO)O[C@@H](n2ccc(N)nc2=O)[C@@H](F)[C@@H]1O [RO-0622]
Rattus norvegicus [19]
  Drug metabolism: metabolite_detected
Hepatitis B virus [20]
  EC50: 0.27 µM
Hepatitis B virus [21]
  EC50: 0.12 µM
Rattus norvegicus [1]
  Drug metabolism: metabolite_detected

## CC(C)Nc1ccn([C@@H]2O[C@@](CO)(N=[N+]=[N-])[C@@H](O)[C@@H]2F)c(=O)n1
[2]
  CC50: > 125 µM
Hepatitis B virus [3]
  inhibition at 1 µM: 43.7%

## CCN(CC)c1ccn([C@@H]2O[C@@](CO)(N=[N+]=[N-])[C@@H](O)[C@@H]2F)c(=O)n1
[2]
  CC50: > 125 µM
Hepatitis B virus [3]
  inhibition at 1 µM: 7.1%

## CNc1ccn([C@@H]2O[C@@](CO)(N=[N+]=[N-])[C@@H](O)[C@@H]2F)c(=O)n1
[2]
  CC50: > 125 µM
Hepatitis B virus [3]
  inhibition at 1 µM: 81.1%

## [N-]=[N+]=N[C@]1(CO)O[C@@H](n2ccc(NC3CC3O)nc2=O)[C@@H](F)[C@@H]1O (stereo not given in full)
Rattus norvegicus [22]
  Drug metabolism: metabolite_detected
Rattus norvegicus [1]
  Drug metabolism: metabolite_detected
Rattus norvegicus [23]
  Drug metabolism: metabolite_detected

## CN(C)c1ccn([C@@H]2O[C@@](CO)(N=[N+]=[N-])[C@@H](O)[C@@H]2F)c(=O)n1
[2]
  CC50: > 125 µM
Hepatitis B virus [3]
  inhibition at 1 µM: 43.6%
